From patent US20260183297A1, “SELECTION OF PATIENTS FOR THE TREATMENT OF FADS1-MEDIATED DISEASES OR DISORDERS USING FADS-1 INHIBITORS” (AMGEN INC., priority 2022, published 2026)

Experiments:
[1] = biological target: T1, human FADS1 (Homo sapiens, UniProt O60427); test: In vitro FADS1 activity assay (HEK 293 cells with FADS1 BacMam, 13C5-DGLA substrate); format: cell-based; conditions: in vitro; read-out: half-maximal inhibitory concentration (IC50) against human FADS1
T1 construct: expressed in transfected cells; host or cells: HEK 293 cells transduced with FADS1 BacMam (MOI 25)
T1 sequence (O60427 whole entry): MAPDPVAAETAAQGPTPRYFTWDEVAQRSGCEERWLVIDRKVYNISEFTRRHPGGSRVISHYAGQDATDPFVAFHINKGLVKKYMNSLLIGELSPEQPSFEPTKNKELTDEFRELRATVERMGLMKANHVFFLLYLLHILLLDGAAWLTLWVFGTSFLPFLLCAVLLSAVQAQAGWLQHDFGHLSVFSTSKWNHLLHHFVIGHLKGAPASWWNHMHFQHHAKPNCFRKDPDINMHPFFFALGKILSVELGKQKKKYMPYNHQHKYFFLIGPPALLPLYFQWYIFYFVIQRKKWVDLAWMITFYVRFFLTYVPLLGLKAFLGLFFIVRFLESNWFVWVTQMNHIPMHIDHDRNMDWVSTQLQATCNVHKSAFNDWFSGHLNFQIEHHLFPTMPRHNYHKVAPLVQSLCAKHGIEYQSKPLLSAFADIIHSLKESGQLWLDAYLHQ
Experimental: HEK 293 cells in Dulbecco's Modified Eagle's medium (DMEM), 10% fetal bovine serum (FBS), 1× penicillin-streptomycin-glutamine (PSG) were mixed with FADS1 BacMam or FADS2 BacMam reagents at multiplicity of infection (MOI) ratio of 25 and plated in a in 96-well poly-D-lysine-coated plate. Plates were incubated in a 37° C., 5% CO2 for 24 hours. Cells were washed with DPBS and cells were incubated with 90 ml of compound dilution in DPBS at 5% CO2, 37° C. for 20 minutes. Ten L of the substrate, ^13C5-DGLA (FADS1), or 13C-LA (FADS2) diluted in DPBS were added to the cells and incubated at 5% CO2, 37° C. for 30 minutes (FADS1) or 45 minutes (FADS2). Cells were then washed with DPBS and 50 μL of 2N NaOH were added to each well and incubated in a 65° C. oven for 1 hour for the saponification reaction. […] Samples were then subjected to LC-MS/MS detection for the following analytes for the FADS1 reaction: ^13C5-DGLA and ^13C5-AA or the following analytes for the FADS2 reaction: ^13C18-LA, ^13C18-GLA, ^13C18-DGLA and ^13C18-AA. Samples were injected onto a Poroshell 120 EC-C18 3.0×50 mm, 1.9 um id column (Agilent, Santa Clara, CA).
The analyte peak areas were quantified by using the Analyst software (SCIEX, Framingham, MA). The percent of substrate to product conversion relative to untreated control were calculated (percent of control [POC]). […]

[2] = Liver histology assessment (H&E, Oil-red-O); format: in vivo, mouse; conditions: WT DIO mice, 10 mg/kg, 24 days, compared to WT vehicle
[3] = Indirect calorimetry studies (CLAMS); format: in vivo, mouse; conditions: DIO mice, 30 mg/kg
Experimental: Twenty-four Fads1 KO and 24 WT mice entered the Comprehensive Laboratory Animal Monitoring System (CLAMS; Columbus Instruments, Columbus, Ohio—Oxymax Model 2018, 0233-004M, Oxymax for Windows v5.53 software, Hardware configuration 190395) before starting the HFD feeding phase, and again at 6 and 12 weeks on HFD. […] Body weight was measured daily, and food consumption was measured biweekly. Animals reentered the CLAMS on days 17-21 and on days 38-42. The volume of oxygen consumption (VO2), carbon dioxide production (VCO2), RER, and energy expenditure (HEAT) were measured during that period.

[4] = system: liver, EPI WAT and ING WAT; test: RNA-Seq analysis of liver, EPI WAT and ING WAT; format: in vivo, mouse; conditions: 30 mg/kg, 54 days
Experimental: RNA was extracted by using the Qiagen RNeasy 96 Universal kit (QIAGEN, Germantown, MD). The concentration and quality of the isolated RNA samples were assessed and determined on an Agilent 4200 TapeStation system and had RNA integrity numbers more than 9.1. Adipose or liver RNA (250 ng) was used to prepare a cDNA library by using a protocol modified from the Illumina TruSeq Stranded mRNA kit (Illumina, San Diego CA). Briefly, after polyA^+ RNA selection, fragmentation, and priming, the fragmented RNA was transcribed to cDNA in the reaction of reverse transcription containing SuperScript™ II (Thermo Fisher Scientific—Invitrogen™, Waltham, MA) and RNase-out (Thermo Fisher Scientific—Invitrogen™, Waltham, MA) and, sequentially, the products of the first strand cDNA synthesis reaction were converted to double-stranded cDNAs and subjected to end repair, A-tailing, and adapter ligation by following the commercial instruction. The constructed libraries were amplified and barcoded using the PCR program: a denaturation step at 98° C. for 30 seconds, 15 cycles of 95° C. for 10 seconds, 60° C. for 30 seconds, and 72° C. for 30 seconds, and a 72° C. extension cycle for 5 minutes followed by a hold step at 4° C. Libraries were sequenced to a minimum depth of 30 million paired end reads on an Illumina HiSeq4000 with the 100 nt or 150 nt read length.
RNA-Seq sequencing reads of the mouse samples were aligned and processed using OSA aligner, which is implemented in the OmicSoft Array Suite (QIAGEN OmicSoft, Cary, NC), based on mouse genome version GRCm38 and gene model GENCODE v19. Read count quantification was performed to the gene level based on OmicSoft implementation of RSEM. Downstream analysis using the read count output was performed following the standard RNA-seq workflow of DESeq2 R/Bioconductor package. Briefly, raw read count was transformed and nonnalized using the Variance Stabilizing Transformation (VST) method. Principal component analysis (PCA) was carried out by the plotPCA function using top 1000 variable genes. Differential expression analysis based on the negative binomial distribution was performed using the DESeq function.
Gene expression was represented as normalized fragments per kilobase per million reads (FPKM). FPKM values were further normalized with a refinement of the commonly employed upper-quartile method that sets the FPKM to a value of 10 at the 70th percentile. Lowly expressed genes with fewer than five samples at FPKM≥1 were removed. Genes with Benjamini-Hochberg (BH)-adjusted P value <0.01 and fold change ≥2 or ≤0.5 were selected as DEGs. Volcano plots of differential expression analysis results were made using EnhancedVolcano R package (github.com/kevinblighe/EnhancedVolcano).
The selected DEGs were annotated by IPA (QIAGEN, Redwood City, CA) on canonical pathways and toxicity lists. Gene expression enrichment in Gene Ontology (GO), KEGG was analyzed by using Cluster Profiler R package with default parameters. Deconvolution analysis was performed using MuSiC software v0.2.0 to estimate relative cell type abundance in each mouse bulk tissue samples. The Tabula Muris single-cell RNA-seq data set was used as a reference for MuSiC algorithm. The analysis was done separately for each tissue types including EPI and ING WAT, and liver.

With `COc1ccn2c(=O)c(-c3cnn(CC(F)(F)C(F)(F)F)c3)c(C(F)(F)F)nc2c1` [Compound A, 8-methoxy-3-(1-(2,2,3,3,3-pentafluoropropyl)-1H-pyrazol-4-yl)-2-(trifluoromethyl)-4H-pyrido[1,2-a]pyrimidin-4-one] the IC50 [1] was 3 nM, the “liver lipid content (Oil-red-O staining)” value [2] was “reduced lipid content” and the body weight ([3]; 42 days, vs vehicle) was “significantly reduced body weight”. The carbon dioxide production ([3]; 42 days, vs vehicle) was “no differences”, the energy expenditure ([3]; 42 days, vs vehicle) was “no differences” and the oxygen consumption ([3]; 42 days, vs vehicle) was “no differences”. For the same compound, the “light cycle RER” value ([3]; at 17-23 days and 38-42 days) was “decreased”, the “activity in the dark cycle” value ([3]; vs vehicle-treated mice) was “trended to be more active” and the “downregulated pathways (IPA) in the liver” value ([4]; Compound A-treated WT DIO mice) was “downregulation of Acute Phase Response. AMPK Signaling, and Senescence pathways”. For the same compound, the “upregulated pathways (IPA) in the liver” value ([4]; Compound A-treated WT DIO mice) was “upregulation of Calcium Signaling, PPARα/RXRα Activation, and Xenobiotic metabolism AHR Signaling pathways”, the “Insulin Receptor Signaling pathway (IPA) in EPI WAT” value ([4]; DIO mice) was “increased” and the “fatty acid oxidation-related genes (Cpt1a, Acox1, Acaa1a, Fgf21) in the liver” value ([4]; DIO mice) was “increased”. The “inflammation-related genes (Cc12, Cd14, Cd68) in ING WAT” value ([4]; DIO mice) was “decreased”, the “lipolysis (Lipe, Mg11, Pnpla2) and insulin-signaling genes (Insr, Irs1, Slc2a4) in EPI WAT” value ([4]; DIO mice) was “increased” and the “cellular composition of EPI WAT (immune cell population)” value ([4]; DIO mice, relative to WT vehicle) was “decreases in T cells, B cells, and natural killer cells”.
